# Measured values: PubChem BioAssay (NCI)
#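 In this assay, cells in 96-well plates receive the compound at five concentrations for 48 hours. Endpoints are linearly interpolated between the surrounding concentrations. TGI marks complete inhibition of growth.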
# Columns and labels:
# Experiment in all cases: DTP human tumour cell line panel, 48 h
# CAKI-1 renal = system: CAKI-1 renal
# OVCAR-5 ovarian = system: OVCAR-5 ovarian
# NCI-H460 lung = system: NCI-H460 lung
# MOLT-4 leukemia = system: MOLT-4 leukemia
# MCF7 breast = system: MCF7 breast
# EKVX NSCLC = system: EKVX NSCLC
# HS 578T breast = system: HS 578T breast
# SF-539 CNS = system: SF-539 CNS
# OVCAR-4 ovarian = system: OVCAR-4 ovarian
# SF-268 CNS = system: SF-268 CNS
# HOP-92 NSCLC = system: HOP-92 NSCLC
# SN12C renal = system: SN12C renal
# A549 NSCLC = system: A549 NSCLC
# K-562 leukemia = system: K-562 leukemia
# TK-10 renal = system: TK-10 renal
Structure (SMILES),TGI (CAKI-1 renal),TGI (OVCAR-5 ovarian),TGI (NCI-H460 lung),TGI (MOLT-4 leukemia),TGI (MCF7 breast),TGI (EKVX NSCLC),TGI (HS 578T breast),TGI (SF-539 CNS),TGI (OVCAR-4 ovarian),TGI (SF-268 CNS),TGI (HOP-92 NSCLC),TGI (SN12C renal),TGI (A549 NSCLC),TGI (K-562 leukemia),TGI (TK-10 renal)
CCOC(=O)c1cc(Br)c(-c2onc(C)c2Br)[nH]1,> 100 µM,> 100 µM,> 100 µM,> 100 µM,> 100 µM,> 100 µM,> 100 µM,> 100 µM,> 100 µM,> 100 µM,> 100 µM,> 100 µM,> 100 µM,> 100 µM,–
Oc1ccc(-c2nc3ccccc3s2)cc1,58.3 µM,> 100 µM,> 100 µM,> 100 µM,> 100 µM,> 100 µM,78.8 µM,> 100 µM,> 100 µM,90.2 µM,> 100 µM,> 100 µM,> 100 µM,> 100 µM,–
CCNc1cc2c3c(c1)CCN3CCC2,> 10 µM,–,> 10 µM,> 10 µM,> 10 µM,> 10 µM,> 10 µM,> 10 µM,> 10 µM,> 10 µM,> 10 µM,> 10 µM,> 10 µM,5.05 µM,> 10 µM
Cc1c([C@H](C)[C@@H]2NC[C@@H](C)C[C@H]2O)ccc2c1C[C@H]1[C@H]2CC=C2C[C@@H](O)CC[C@@]21C,> 100 µM,90.8 µM,41.4 µM,37.4 µM,31.5 µM,8.53 µM,66.6 µM,–,40 µM,> 100 µM,23.3 µM,69.5 µM,47.9 µM,40.6 µM,67.3 µM
CC(C)(C)OC(=O)c1ccc(NCC2=C(Br)C(=O)C=CC2=O)cc1,26.8 µM,56.1 µM,> 83.6 µM,45.7 µM,48.4 µM,53.9 µM,67.3 µM,52.8 µM,33 µM,> 67.8 µM,28.4 µM,44 µM,> 100 µM,> 58 µM,48.2 µM
CCN(CC)C(=O)CCN1CC1,> 10 µM,> 10 µM,> 10 µM,> 10 µM,> 10 µM,> 10 µM,> 10 µM,> 10 µM,> 10 µM,> 10 µM,> 10 µM,> 10 µM,> 10 µM,> 10 µM,> 10 µM
COc1cc(Oc2nc3cc(F)c(F)cc3nc2-c2ccccc2)cc(OC)c1OC,> 100 µM,> 100 µM,> 100 µM,> 100 µM,> 100 µM,> 100 µM,> 100 µM,58.7 µM,> 100 µM,> 100 µM,> 100 µM,> 100 µM,> 100 µM,–,> 100 µM
NC(=S)NC/C=C/Cl,> 100 µM,> 100 µM,> 100 µM,> 100 µM,> 100 µM,> 100 µM,> 100 µM,–,> 100 µM,–,> 100 µM,–,> 100 µM,> 100 µM,> 100 µM
COC(=O)Nc1nc2ccc(NC(=O)c3ccc(I)cc3)cc2[nH]1,> 100 µM,> 100 µM,> 100 µM,> 100 µM,> 100 µM,> 100 µM,> 100 µM,> 100 µM,> 100 µM,> 100 µM,> 100 µM,> 100 µM,> 100 µM,> 100 µM,> 100 µM
O=c1[nH]nc(Cc2ccc(Cl)cc2)n1/N=C/c1ccc([N+](=O)[O-])o1,> 39 µM,> 54.6 µM,> 36.2 µM,> 26.6 µM,> 36.8 µM,13.8 µM,8.24 µM,9.39 µM,15.9 µM,7.93 µM,> 46.8 µM,> 100 µM,> 35.4 µM,> 31 µM,18.5 µM
CC1(C)CC[C@]2(C(=O)O)CC[C@]3(C)[C@H](C(=O)C=C4[C@@]5(C)C=C(C#N)C(=O)C(C)(C)[C@@H]5CC[C@]43C)[C@@H]2C1,3.46 µM,2.12 µM,22.2 µM,13.9 µM,5.14 µM,9.68 µM,10.4 µM,4.05 µM,23.2 µM,7.78 µM,8.16 µM,2.97 µM,5.86 µM,27.1 µM,2.02 µM
CC1(C)C=C(/C=N/Nc2ccccc2)C(C#N)=C(O)C1(C#N)C#N,> 100 µM,> 100 µM,> 100 µM,> 100 µM,> 100 µM,> 100 µM,> 100 µM,> 100 µM,> 100 µM,> 100 µM,99.6 µM,> 100 µM,> 100 µM,> 100 µM,> 100 µM
C=C1CC(C)(c2cccc(Nc3nc4ccccc4c4occc34)c2)OC1=O (stereo not drawn),16.7 µM,31.7 µM,33.8 µM,> 100 µM,16.4 µM,27.9 µM,9.16 µM,3.47 µM,20.4 µM,29.1 µM,7.29 µM,7.75 µM,46.3 µM,–,9.99 µM
CC(C)CCOC(=O)NC(Nc1ccc(F)cc1)(C(F)(F)F)C(F)(F)F,> 100 µM,> 100 µM,> 100 µM,76.8 µM,> 100 µM,> 100 µM,> 100 µM,46.1 µM,–,> 100 µM,> 100 µM,> 100 µM,> 100 µM,> 100 µM,> 100 µM
CCOC1=C(c2ccccc2)N2CCCCC2O1 (stereo not drawn),> 84.2 µM,> 59.2 µM,15 µM,> 73 µM,51.9 µM,> 100 µM,33.1 µM,34.8 µM,–,48.1 µM,6 µM,> 41.9 µM,> 100 µM,> 47.5 µM,> 38.6 µM
O=C(O)c1cccc(NC(C(=O)c2ccccc2)c2ccccc2)c1 (stereo not drawn),> 100 µM,> 100 µM,> 100 µM,> 100 µM,> 100 µM,> 100 µM,80.6 µM,> 100 µM,–,> 100 µM,> 100 µM,> 100 µM,> 100 µM,> 100 µM,> 100 µM
